Results taken from ChEMBL document CHEMBL2016493, “Design, synthesis, synergistic antimicrobial activity and cytotoxicity of 4-aryl substituted 3,4-dihydropyrimidinones of curcumin” (Bioorg Med Chem Lett, 2012).
Activity calls are given as the source filed them. The rule behind the calls is not given here.

What was measured:
Trichoderma viride [1] = experiment: Antifungal activity against Trichoderma viride MTCC 1107 at 80 uM/ml after 48 hrs by paper disc diffusion method; assay type: functional; details: MTCC 1107, 48 h, read-out: IZ
Escherichia coli [2] = experiment: Antibacterial activity against Escherichia coli ATCC 35218 at 20 uM/ml after 24 hrs by kirby-bauer method; assay type: functional
Salmonella typhimurium [3] = experiment: Antibacterial activity against Salmonella typhimurium ATCC 23564 at 160 uM/ml after 24 hrs by kirby-bauer method; assay type: functional, Salmonella enterica subsp. enterica serovar Typhimurium; details: Salmonella enterica, ATCC 23564, 24 h; read-out: IZ
Aspergillus flavus [4] = experiment: Antifungal activity against Aspergillus flavus MTCC 1021 at 40 uM/ml after 48 hrs by paper disc diffusion method; assay type: functional
Pseudomonas aeruginosa [5] = experiment: Antibacterial activity against Pseudomonas aeruginosa ATCC 15499 at 20 uM/ml after 24 hrs by kirby-bauer method; assay type: functional
Trichoderma viride [6] = experiment: Antifungal activity against Trichoderma viride MTCC 1107 at 40 uM/ml after 48 hrs by paper disc diffusion method; assay type: functional; details: MTCC 1107, 48 h, read-out: IZ
Aspergillus niger [7] = experiment: Antifungal activity against Aspergillus niger MTCC 1108 at 160 uM/ml after 48 hrs by paper disc diffusion method; assay type: functional; details: MTCC 1108, 48 h, read-out: IZ
Aspergillus flavus [8] = experiment: Antifungal activity against Aspergillus flavus MTCC 1021 at 20 uM/ml after 48 hrs by paper disc diffusion method; assay type: functional
Curvularia lunata [9] = experiment: Antifungal activity against Curvularia lunata MTCC 581 at 20 uM/ml after 48 hrs by paper disc diffusion method; assay type: functional; details: MTCC 581, 48 h, read-out: IZ
Aspergillus niger [10] = experiment: Antifungal activity against Aspergillus niger MTCC 1108 at 20 uM/ml after 48 hrs by paper disc diffusion method; assay type: functional
Trichoderma viride [11] = experiment: Antifungal activity against Trichoderma viride MTCC 1107 at 20 uM/ml after 48 hrs by paper disc diffusion method; assay type: functional
Staphylococcus aureus [12] = experiment: Antibacterial activity against Staphylococcus aureus ATCC 11632 at 40 uM/ml after 24 hrs by kirby-bauer method; assay type: functional
Staphylococcus aureus [13] = experiment: Antibacterial activity against Staphylococcus aureus ATCC 11632 at 160 uM/ml after 24 hrs by kirby-bauer method; assay type: functional; details: ATCC 11632, 24 h, read-out: IZ
Curvularia lunata [14] = experiment: Antifungal activity against Curvularia lunata MTCC 581 at 40 uM/ml after 48 hrs by paper disc diffusion method; assay type: functional; details: MTCC 581, 48 h, read-out: IZ
Escherichia coli [15] = experiment: Antibacterial activity against Escherichia coli ATCC 35218 at 160 uM/ml after 24 hrs by kirby-bauer method; assay type: functional; details: ATCC 35218, 24 h, read-out: IZ
Pseudomonas aeruginosa [16] = experiment: Antibacterial activity against Pseudomonas aeruginosa ATCC 15499 at 40 uM/ml after 24 hrs by kirby-bauer method; assay type: functional; details: ATCC 15499, 24 h, read-out: IZ
Aspergillus niger [17] = experiment: Antifungal activity against Aspergillus niger MTCC 1108 at 80 uM/ml after 48 hrs by paper disc diffusion method; assay type: functional; details: MTCC 1108, 48 h, read-out: IZ
Aspergillus flavus [18] = experiment: Antifungal activity against Aspergillus flavus MTCC 1021 at 160 uM/ml after 48 hrs by paper disc diffusion method; assay type: functional; details: MTCC 1021, 48 h, read-out: IZ
Curvularia lunata [19] = experiment: Antifungal activity against Curvularia lunata MTCC 581 at 160 uM/ml after 48 hrs by paper disc diffusion method; assay type: functional; details: MTCC 581, 48 h, read-out: IZ
[20] = system: Burkholderia pseudomallei; experiment: Antibacterial activity against Burkholderia pseudomallei NTCC 10274 at 20 uM/ml after 24 hrs by kirby-bauer method; assay type: functional; details: NTCC 10274, 24 h, read-out: IZ
Escherichia coli [21] = experiment: Antibacterial activity against Escherichia coli ATCC 35218 at 40 uM/ml after 24 hrs by kirby-bauer method; assay type: functional; details: ATCC 35218, 24 h, read-out: IZ
Salmonella typhimurium [22] = experiment: Antibacterial activity against Salmonella typhimurium ATCC 23564 at 40 uM/ml after 24 hrs by kirby-bauer method; assay type: functional, Salmonella enterica subsp. enterica serovar Typhimurium; details: Salmonella enterica, ATCC 23564, 24 h; read-out: IZ
Pseudomonas aeruginosa [23] = experiment: Antibacterial activity against Pseudomonas aeruginosa ATCC 15499 at 160 uM/ml after 24 hrs by kirby-bauer method; assay type: functional; details: ATCC 15499, 24 h, read-out: IZ
QG-56 = experiment: Cytotoxicity against human QG56 cells after 48 hrs by MTT assay; assay type: functional, cell-based
Staphylococcus aureus [24] = experiment: Antibacterial activity against Staphylococcus aureus ATCC 11632 at 80 uM/ml after 24 hrs by kirby-bauer method; assay type: functional; details: ATCC 11632, 24 h, read-out: IZ
Pseudomonas aeruginosa [25] = experiment: Antibacterial activity against Pseudomonas aeruginosa ATCC 15499 at 80 uM/ml after 24 hrs by kirby-bauer method; assay type: functional; details: ATCC 15499, 24 h, read-out: IZ
Salmonella typhimurium [26] = experiment: Antibacterial activity against Salmonella typhimurium ATCC 23564 at 80 uM/ml after 24 hrs by kirby-bauer method; assay type: functional, Salmonella enterica subsp. enterica serovar Typhimurium; details: Salmonella enterica, ATCC 23564, 24 h; read-out: IZ
Staphylococcus aureus [27] = experiment: Antibacterial activity against Staphylococcus aureus ATCC 11632 at 20 uM/ml after 24 hrs by kirby-bauer method; assay type: functional
[28] = system: Burkholderia pseudomallei; experiment: Antibacterial activity against Burkholderia pseudomallei NTCC 10274 at 160 uM/ml after 24 hrs by kirby-bauer method; assay type: functional; details: NTCC 10274, 24 h, read-out: IZ
Aspergillus niger [29] = experiment: Antifungal activity against Aspergillus niger MTCC 1108 at 40 uM/ml after 48 hrs by paper disc diffusion method; assay type: functional
Trichoderma viride [30] = experiment: Antifungal activity against Trichoderma viride MTCC 1107 at 160 uM/ml after 48 hrs by paper disc diffusion method; assay type: functional; details: MTCC 1107, 48 h, read-out: IZ
Aspergillus flavus [31] = experiment: Antifungal activity against Aspergillus flavus MTCC 1021 at 80 uM/ml after 48 hrs by paper disc diffusion method; assay type: functional
[32] = system: Burkholderia pseudomallei; experiment: Antibacterial activity against Burkholderia pseudomallei NTCC 10274 at 80 uM/ml after 24 hrs by kirby-bauer method; assay type: functional; details: NTCC 10274, 24 h, read-out: IZ
Salmonella typhimurium [33] = experiment: Antibacterial activity against Salmonella typhimurium ATCC 23564 at 20 uM/ml after 24 hrs by kirby-bauer method; assay type: functional, Salmonella enterica subsp. enterica serovar Typhimurium
Escherichia coli [34] = experiment: Antibacterial activity against Escherichia coli ATCC 35218 at 80 uM/ml after 24 hrs by kirby-bauer method; assay type: functional; details: ATCC 35218, 24 h, read-out: IZ
Curvularia lunata [35] = experiment: Antifungal activity against Curvularia lunata MTCC 581 at 80 uM/ml after 48 hrs by paper disc diffusion method; assay type: functional; details: MTCC 581, 48 h, read-out: IZ
[36] = system: Burkholderia pseudomallei; experiment: Antibacterial activity against Burkholderia pseudomallei NTCC 10274 at 40 uM/ml after 24 hrs by kirby-bauer method; assay type: functional; details: NTCC 10274, 24 h, read-out: IZ

| Compound | zone of inhibition at 80 µM (Trichoderma viride [1]) [mm] | zone of inhibition at 160 µM (Salmonella typhimurium [3]) [mm] | IC50 (HCT-116) [uM/ml] | zone of inhibition (Trichoderma viride [6]) [mm] | zone of inhibition at 160 µM (Aspergillus niger [7]) [mm] | inhibition zone (IZ) (Aspergillus flavus [8]) | zone of inhibition at 20 µM (Curvularia lunata [9]) [mm] | zone of inhibition at 160 µM (Staphylococcus aureus [13]) [mm] | zone of inhibition at 40 µM (Curvularia lunata [14]) [mm] | zone of inhibition at 160 µM (Escherichia coli [15]) [mm] | zone of inhibition at 40 µM (Pseudomonas aeruginosa [16]) [mm] | zone of inhibition at 80 µM (Aspergillus niger [17]) [mm] | IC50 (HepG2) [uM/ml] | zone of inhibition at 160 µM (Aspergillus flavus [18]) [mm] | zone of inhibition at 160 µM (Curvularia lunata [19]) [mm] | zone of inhibition at 20 µM [20] [mm] | zone of inhibition at 40 µM (Escherichia coli [21]) [mm] | zone of inhibition at 40 µM (Salmonella typhimurium [22]) [mm] | zone of inhibition at 160 µM (Pseudomonas aeruginosa [23]) [mm] | IC50 (QG-56) [uM/ml] | also measured |
| --- | --- | --- | --- | --- | --- | --- | --- | --- | --- | --- | --- | --- | --- | --- | --- | --- | --- | --- | --- | --- | --- |
| COc1cc(/C=C/C(=O)C2=C(/C=C/c3ccc(O)c(OC)c3)NC(=O)NC2c2ccc(O)cc2)ccc1O (stereo not drawn) | 14 | 18 | 12.5 | 11 | 11 | inactive | 18 | 24 | 20 | 22 | 19 | 9 | 25 | 13 | 21 | 9 | 14 | 13 | 22 | 50 | zone of inhibition at 20 µM (Escherichia coli [2]; ATCC 35218, 24 h, read-out: IZ): 12 mm; zone of inhibition at 40 µM (Aspergillus flavus [4]; MTCC 1021, 48 h, read-out: IZ): 9 mm; zone of inhibition at 20 µM (Pseudomonas aeruginosa [5]; ATCC 15499, 24 h, read-out: IZ): 17 mm; inhibition zone (IZ) (Aspergillus niger [10]): inactive; zone of inhibition at 20 µM (Trichoderma viride [11]; MTCC 1107, 48 h, read-out: IZ): 9 mm; zone of inhibition at 40 µM (Staphylococcus aureus [12]; ATCC 11632, 24 h, read-out: IZ): 19 mm; zone of inhibition at 80 µM (Staphylococcus aureus [24]): 22 mm; zone of inhibition at 80 µM (Pseudomonas aeruginosa [25]): 19 mm; zone of inhibition at 80 µM (Salmonella typhimurium [26]): 16 mm; zone of inhibition at 20 µM (Staphylococcus aureus [27]; ATCC 11632, 24 h, read-out: IZ): 16 mm; zone of inhibition at 160 µM [28]: 19 mm; inhibition zone (IZ) (Aspergillus niger [29]): inactive; zone of inhibition at 160 µM (Trichoderma viride [30]): 16 mm; zone of inhibition at 80 µM (Aspergillus flavus [31]; MTCC 1021, 48 h, read-out: IZ): 11 mm; zone of inhibition at 80 µM [32]: 15 mm; zone of inhibition at 20 µM (Salmonella typhimurium [33]; Salmonella enterica, ATCC 23564, 24 h, read-out: IZ): 9 mm; zone of inhibition at 80 µM (Escherichia coli [34]): 18 mm; zone of inhibition at 80 µM (Curvularia lunata [35]): 20 mm; zone of inhibition at 40 µM [36]: 11 mm |
| COc1cc(/C=C/C(=O)C2=C(/C=C/c3ccc(O)c(OC)c3)NC(=S)NC2c2ccc(O)c(OC)c2)ccc1O (stereo not drawn) | 11 | 14 | 100 | 9 | 16 | inactive | 19 | 11 | 21 | 14 | 9 | 12 | 50 | 11 | 24 | 13 | 9 | 9 | 14 | 100 | inhibition zone (IZ) (Escherichia coli [2]): inactive; inhibition zone (IZ) (Aspergillus flavus [4]): inactive; inhibition zone (IZ) (Pseudomonas aeruginosa [5]): inactive; zone of inhibition at 20 µM (Aspergillus niger [10]; MTCC 1108, 48 h, read-out: IZ): 9 mm; inhibition zone (IZ) (Trichoderma viride [11]): inactive; inhibition zone (IZ) (Staphylococcus aureus [12]): inactive; zone of inhibition at 80 µM (Staphylococcus aureus [24]): 9 mm; zone of inhibition at 80 µM (Pseudomonas aeruginosa [25]): 11 mm; zone of inhibition at 80 µM (Salmonella typhimurium [26]): 12 mm; inhibition zone (IZ) (Staphylococcus aureus [27]): inactive; zone of inhibition at 160 µM [28]: 21 mm; zone of inhibition at 40 µM (Aspergillus niger [29]; MTCC 1108, 48 h, read-out: IZ): 11 mm; zone of inhibition at 160 µM (Trichoderma viride [30]): 13 mm; inhibition zone (IZ) (Aspergillus flavus [31]): inactive; zone of inhibition at 80 µM [32]: 18 mm; inhibition zone (IZ) (Salmonella typhimurium [33]; Salmonella enterica subsp. enterica serovar Typhimurium): inactive; zone of inhibition at 80 µM (Escherichia coli [34]): 11 mm; zone of inhibition at 80 µM (Curvularia lunata [35]): 22 mm; zone of inhibition at 40 µM [36]: 16 mm |
